In ChEMBL document CHEMBL3045792, “Synthesis, antimicrobial activity, and molecular modeling of novel 4-(3-(4-benzylpiperazin-1-yl)propoxy)-7-methoxy-3-substituted phenyl-2H-chromen-2-one” (2013):
Active and inactive are the calls of the source. The rule behind the calls is not given here.

Columns and labels:
Type in all cases: functional
[1] = tested on: Proteus vulgaris; assay: Antibacterial activity against Proteus vulgaris assessed as growth inhibition at 600 ug/ml by NCCLS […] method; settings: read-out: IZ
[2] = tested on: Candida albicans; assay: Antifungal activity against Candida albicans assessed as growth inhibition at 1200 ug/ml; settings: read-out: IZ
[3] = tested on: Exserohilum rostratum; assay: Antifungal activity against Setosphaeria rostrata assessed as growth inhibition at 1200 ug/ml; settings: read-out: IZ
[4] = tested on: Staphylococcus aureus; assay: Antibacterial activity against Staphylococcus aureus assessed as growth inhibition at 900 ug/ml by NCCLS […] method; settings: read-out: IZ
[5] = tested on: Proteus mirabilis; assay: Antibacterial activity against Proteus mirabilis assessed as growth inhibition at 900 ug/ml by NCCLS […] method; settings: read-out: IZ
[6] = tested on: Streptococcus pyogenes; assay: Antibacterial activity against Streptococcus pyogenes assessed as growth inhibition at 900 ug/ml by NCCLS […] method; settings: read-out: IZ
[7] = tested on: Colletotrichum falcatum; assay: Antifungal activity against Glomerella tucumanensis assessed as growth inhibition at 1200 ug/ml; settings: for zone of inhibition at 1200 µg/mL: read-out: IZ
[8] = tested on: Bacillus pumilus; assay: Antibacterial activity against Bacillus pumilus assessed as growth inhibition at 600 ug/ml by NCCLS […] method; settings: for zone of inhibition at 600 µg/mL: read-out: IZ
[9] = tested on: Colletotrichum falcatum; assay: Antifungal activity against Glomerella tucumanensis assessed as growth inhibition at 600 ug/ml; settings: for zone of inhibition at 600 µg/mL: read-out: IZ
[10] = tested on: Bacillus subtilis; assay: Antibacterial activity against Bacillus subtilis assessed as growth inhibition at 600 ug/ml by NCCLS […] method; settings: read-out: IZ
[11] = tested on: Exserohilum rostratum; assay: Antifungal activity against Setosphaeria rostrata assessed as growth inhibition at 900 ug/ml; settings: read-out: IZ
[12] = tested on: Escherichia coli; assay: Antibacterial activity against Escherichia coli assessed as growth inhibition at 600 ug/ml by NCCLS […] method; settings: for zone of inhibition at 600 µg/mL: read-out: IZ
[13] = tested on: Klebsiella pneumoniae; assay: Antibacterial activity against Klebsiella pneumoniae assessed as growth inhibition at 900 ug/ml by NCCLS […] method; settings: read-out: IZ
[14] = tested on: Fusarium oxysporum; assay: Antifungal activity against Fusarium oxysporum assessed as growth inhibition at 900 ug/ml
[15] = tested on: Klebsiella pneumoniae; assay: Antibacterial activity against Klebsiella pneumoniae assessed as growth inhibition at 600 ug/ml by NCCLS […] method; settings: read-out: IZ
[16] = tested on: Exserohilum rostratum; assay: Antifungal activity against Setosphaeria rostrata assessed as growth inhibition at 300 ug/ml; settings: read-out: IZ
[17] = tested on: Proteus mirabilis; assay: Antibacterial activity against Proteus mirabilis assessed as growth inhibition at 600 ug/ml by NCCLS […] method; settings: read-out: IZ
[18] = tested on: Colletotrichum falcatum; assay: Antifungal activity against Glomerella tucumanensis assessed as growth inhibition at 900 ug/ml; settings: for zone of inhibition at 900 µg/mL: read-out: IZ
[19] = tested on: Bacillus subtilis; assay: Antibacterial activity against Bacillus subtilis assessed as growth inhibition at 900 ug/ml by NCCLS […] method; settings: read-out: IZ
[20] = tested on: Streptococcus pyogenes; assay: Antibacterial activity against Streptococcus pyogenes assessed as growth inhibition at 600 ug/ml by NCCLS […] method; settings: read-out: IZ
[21] = tested on: Klebsiella aerogenes; assay: Antibacterial activity against Enterobacter aerogenes assessed as growth inhibition at 900 ug/ml by NCCLS […] method; settings: read-out: IZ
[22] = tested on: Priestia megaterium; assay: Antibacterial activity against Bacillus megaterium assessed as growth inhibition at 600 ug/ml by NCCLS […] method; settings: for zone of inhibition at 600 µg/mL: read-out: IZ
[23] = tested on: Fusarium oxysporum; assay: Antifungal activity against Fusarium oxysporum assessed as growth inhibition at 1200 ug/ml
[24] = tested on: Escherichia coli; assay: Antibacterial activity against Escherichia coli assessed as growth inhibition at 900 ug/ml by NCCLS […] method; settings: for zone of inhibition at 900 µg/mL: read-out: IZ
[25] = tested on: Candida albicans; assay: Antifungal activity against Candida albicans assessed as growth inhibition at 300 ug/ml; settings: read-out: IZ
[26] = tested on: Staphylococcus aureus; assay: Antibacterial activity against Staphylococcus aureus assessed as growth inhibition at 600 ug/ml by NCCLS […] method; settings: read-out: IZ
[27] = tested on: Fusarium oxysporum; assay: Antifungal activity against Fusarium oxysporum assessed as growth inhibition at 600 ug/ml
[28] = tested on: Bacillus pumilus; assay: Antibacterial activity against Bacillus pumilus assessed as growth inhibition at 900 ug/ml by NCCLS […] method; settings: for zone of inhibition at 900 µg/mL: read-out: IZ
[29] = tested on: Candida albicans; assay: Antifungal activity against Candida albicans assessed as growth inhibition at 900 ug/ml; settings: read-out: IZ
[30] = tested on: Klebsiella aerogenes; assay: Antibacterial activity against Enterobacter aerogenes assessed as growth inhibition at 600 ug/ml by NCCLS […] method; settings: read-out: IZ
[31] = tested on: Exserohilum rostratum; assay: Antifungal activity against Setosphaeria rostrata assessed as growth inhibition at 600 ug/ml; settings: read-out: IZ
[32] = tested on: Priestia megaterium; assay: Antibacterial activity against Bacillus megaterium assessed as growth inhibition at 900 ug/ml by NCCLS […] method; settings: for zone of inhibition at 900 µg/mL: read-out: IZ
[33] = tested on: Candida albicans; assay: Antifungal activity against Candida albicans assessed as growth inhibition at 600 ug/ml; settings: read-out: IZ
[34] = tested on: Proteus vulgaris; assay: Antibacterial activity against Proteus vulgaris assessed as growth inhibition at 900 ug/ml by NCCLS […] method; settings: read-out: IZ
[35] = tested on: Colletotrichum falcatum; assay: Antifungal activity against Glomerella tucumanensis assessed as growth inhibition at 300 ug/ml; settings: for zone of inhibition at 300 µg/mL: read-out: IZ
[36] = tested on: Fusarium oxysporum; assay: Antifungal activity against Fusarium oxysporum assessed as growth inhibition at 300 ug/ml

| SMILES | zone of inhibition at 600 µg/mL [1] [mm] | zone of inhibition at 1200 µg/mL [2] [mm] | zone of inhibition at 1200 µg/mL [3] [mm] | zone of inhibition at 900 µg/mL [4] [mm] | zone of inhibition at 900 µg/mL [5] [mm] | zone of inhibition at 900 µg/mL [6] [mm] | zone of inhibition at 600 µg/mL [10] [mm] | zone of inhibition at 900 µg/mL [11] [mm] | zone of inhibition at 900 µg/mL [13] [mm] | zone of inhibition at 600 µg/mL [15] [mm] | zone of inhibition at 300 µg/mL [16] [mm] | zone of inhibition at 600 µg/mL [17] [mm] | zone of inhibition at 900 µg/mL [19] [mm] | zone of inhibition at 600 µg/mL [20] [mm] | zone of inhibition at 900 µg/mL [21] [mm] | zone of inhibition at 300 µg/mL [25] [mm] | zone of inhibition at 600 µg/mL [26] [mm] | zone of inhibition at 900 µg/mL [29] [mm] | zone of inhibition at 600 µg/mL [30] [mm] | zone of inhibition at 600 µg/mL [31] [mm] | further results |
| --- | --- | --- | --- | --- | --- | --- | --- | --- | --- | --- | --- | --- | --- | --- | --- | --- | --- | --- | --- | --- | --- |
| COc1ccc2c(OCCCN3CCN(Cc4cccnc4)CC3)c(-c3ccccc3)c(=O)oc2c1 | 8.76 | 24.6 | 23.4 | 21.4 | 21.6 | 16.8 | 8.76 | 11.9 | 7.93 | 3.78 | 2.9 | 11.3 | 15.1 | 9.12 | 8.56 | 3.21 | 11.6 | 13.7 | 4.22 | 6.76 | zone of inhibition at 1200 µg/mL [7]: 27 mm; growth inhibition (GI) [8]: inactive; zone of inhibition at 600 µg/mL [9]: 7.76 mm; zone of inhibition at 600 µg/mL [12]: 3.87 mm; zone of inhibition at 900 µg/mL ([14]; read-out: IZ): 18.8 mm; zone of inhibition at 900 µg/mL [18]: 13.2 mm; zone of inhibition at 600 µg/mL [22]: 7.65 mm; zone of inhibition at 1200 µg/mL ([23]; read-out: IZ): 27.9 mm; zone of inhibition at 900 µg/mL [24]: 6.21 mm; zone of inhibition at 600 µg/mL ([27]; read-out: IZ): 8.78 mm; growth inhibition (GI) [28]: inactive; zone of inhibition at 900 µg/mL [32]: 13.4 mm; zone of inhibition at 600 µg/mL [33]: 6.14 mm; zone of inhibition at 900 µg/mL [34]: 17.1 mm; zone of inhibition at 300 µg/mL [35]: 4.45 mm; zone of inhibition at 300 µg/mL ([36]; read-out: IZ): 3.47 mm |
| COc1ccc(CN2CCN(CCCOc3c(-c4ccccc4)c(=O)oc4cc(OC)ccc34)CC2)cc1 | 2 | 23.2 | 28.8 | 6.25 | 10.5 | 4.19 | 4.28 | 15 | 10.1 | 5.48 | 3.8 | 5.25 | 8.9 | 2.08 | 8.9 | 2.76 | 3 | 11 | 4.24 | 7.56 | zone of inhibition at 1200 µg/mL [7]: 31.8 mm; zone of inhibition at 600 µg/mL [8]: 5.25 mm; zone of inhibition at 600 µg/mL [9]: 8.62 mm; growth inhibition (GI) [12]: inactive; growth inhibition (GI) [14]: inactive; zone of inhibition at 900 µg/mL [18]: 17 mm; zone of inhibition at 600 µg/mL [22]: 4.26 mm; growth inhibition (GI) [23]: inactive; growth inhibition (GI) [24]: inactive; growth inhibition (GI) [27]: inactive; zone of inhibition at 900 µg/mL [28]: 10.5 mm; zone of inhibition at 900 µg/mL [32]: 8.19 mm; zone of inhibition at 600 µg/mL [33]: 5.62 mm; zone of inhibition at 900 µg/mL [34]: 4.25 mm; zone of inhibition at 300 µg/mL [35]: 4.08 mm; growth inhibition (GI) [36]: inactive |
| COc1ccc2c(OCCCN3CCN(Cc4ccccc4)CC3)c(-c3ccccc3)c(=O)oc2c1 | 6.54 | 22.3 | 24.6 | 11.2 | 11.3 | 11.9 | 6.56 | 15.8 | 4.98 | 2.56 | 4.25 | 5.55 | 12 | 6.54 | 7.53 | 2.87 | 7.89 | 12 | 3.8 | 8.56 | growth inhibition (GI) [7]: inactive; zone of inhibition at 600 µg/mL [8]: 2.27 mm; growth inhibition (GI) [9]: inactive; zone of inhibition at 600 µg/mL [12]: 2.98 mm; growth inhibition (GI) [14]: inactive; growth inhibition (GI) [18]: inactive; growth inhibition (GI) [22]: inactive; growth inhibition (GI) [23]: inactive; zone of inhibition at 900 µg/mL [24]: 5.76 mm; growth inhibition (GI) [27]: inactive; zone of inhibition at 900 µg/mL [28]: 4.21 mm; growth inhibition (GI) [32]: inactive; zone of inhibition at 600 µg/mL [33]: 5.43 mm; zone of inhibition at 900 µg/mL [34]: 12.8 mm; growth inhibition (GI) [35]: inactive; growth inhibition (GI) [36]: inactive |
